Reference: patent publication US9592305B2, “Compositions of jasmonate compounds and methods of use” (Nanocare Technologies, Inc., priority 2011, dated 2017)

Key:
[1] = test system: chemically induced colon tumors; test: Chemically (MNNG) induced colon tumors in mice: tumor size, PCNA, apoptotic index, CASPASE-3; assay type: in vivo, Balb/c mice
Description: The effect of cyclodextrin-carried MDJ made in Example 3 above was studied in an experimental model of colonic cancer in mice. Apoptosis and cell proliferation, the two most important events related to tumor growth were investigated. The apoptosis and proliferation indexes of colon tumor, adjacent non-cancer tissues and normal colonic tissues were determined. Apoptosis was quantified by apoptotic nuclei counting and CASPASE-3 immunostaining, whereas proliferation was determined by PCNA immunostaining.
The animals were maintained in agreement with the guidelines of Committee on Care and Uses of Laboratory Animals of the National Research Council of the National Institutes of Health (USA). The mice were fed with food and water ad libitum and maintained on hardwood bedding under a 12-h light/dark cycle. Animals were weighed weekly during the experiments. All experiments were approved by the USP Animal Ethics Committee.
(§1) Briefly, Balb/c mice were treated by intrarectal instillations of the carcinogen N-methyl-N′-nitro-N-nitrosoguanidine (MNNG), twice a week for 2 weeks (XX), and were sacrificed 24 weeks after the beginning of the treatment. Ten days before the end of the experiment, the animals of group A (n=10) were treated with daily i.p. injections of cyclodextrin-carried MDJ (10 μL of saline solution with 1 millimolar MDJ) for every 60 grams of body weight. The animals of group B (n=10) were treated by daily intrarectal instillations of cyclodextrin-carried MDJ, at the same dosage. The group C (n=10) was treated with MNNG and with daily i.p. injections of MDJ (diluted at 10% in 100 μL of saline). The animals of the group D were treated with MNNG and by daily intrarectal instillations of MDJ, at the same dosage. The control group E was treated with MNNG alone. The control groups F and G were treated with saline and cyclodextrin-carried MDJ, i.p. and i.r, respectively. The control groups H and I received saline and MDJ, i.p. and i.r, respectively. The dosages of cyclodextrin-carried MDJ and MDJ were based on previous animal pilot studies.
Colon tumor (T), adjacent non-tumor site (NT), macroscopically normal colonic mucosa from non-tumor […] (N) in the same treatment group were obtained. Immunohistochemistry was performed to study cell proliferation by the Proliferating cellular antigen (PCNA) staining and to analyze cell apoptosis by both the apoptotic bodies counting and by the CASPASE-3 staining. Results were expressed and PCNA labeling index (PCNA-Li), Apoptotic Index (AI) and CASPASE-3 Labeling Index (CASPASE-3-Li). Standard hematology and clinical chemistry parameters were also monitored.
Apoptosis was determined by apoptotic nuclei counting. Sections were stained with hematoxylin and eosin to evaluate the number of apoptotic cells per section. The criteria used to recognize apoptotic cells were: shrunk size, loss of contact with surrounding tissues (at times forming the classically described halo) and nuclear condensation as previously described (Yu et al., Gut 2002, 51:480-484). At least 1 000 cells were counted in five random fields and the percentage of cells with apoptotic features was then calculated (apoptotic index or AI). The apoptotic nuclei counts were compared with findings obtained by CASPASE-3 immunostaining in 30 randomly selected areas. A strong correlation between apoptotic nuclei count and CASPASE-3 results was found (r=0.83, P<0.001).
Proliferation was assayed by immunoperoxidase staining for Proliferating Cell Nuclear Antigen (PCNA) as described previously. Briefly, paraffin-embedded sections from each specimen were labeled with PCNA antibody, after microwave antigen retrieval in citrate buffer. Negative controls were run by replacing the primary antibody with non-immune serum. The slides were developed in 3,3-diaminobenzidine tetrahydrochloride (DAB, Dako, Denmark) and counter-stained with Mayer haematoxylin. […]

[2] = Toxicity observations in the MNNG colon tumor study (histopathology, hematology, clinical chemistry); conditions: mouse, in vivo, ip
Description: as §1
Colon tumor (T), adjacent non-tumor site (NT), macroscopically normal colonic mucosa from non-tumor rats (N) in the same treatment group were obtained. […] Standard hematology and clinical chemistry parameters were also monitored.

[3] = test system: HUVEC; test: MTT cytotoxicity and growth curves in endothelial cells; assay type: cell-based, human
[4] = test system: B16F10 murine melanoma cells; test: MTT cytotoxicity and growth curves in murine melanoma cells; assay type: cell-based; conditions: cultures of murine melanoma
[5] = test system: HUVEC; test: Cell cycle by flow cytometry (propidium iodide, acridine orange) in HUVEC; assay type: cell-based, human
Description: FIG. 13: Effect of MDJ on the cell cycle in HUVEC after 18 h of exposure in vitro. The concentrations used in each test are shown in graphics measures cell cycle were performed on a BD FACScalibur equipment, after labeling with propidium iodide simple. The staining with acridine orange served as a control of the process of apoptosis.
(§2) Cell lines used: non-neoplastic cells derived from human umbilical cord endothelial (HUVEC) and neoplastic cells of melanoma, B16F10 murine tumor. The HUVECs were provided by Dra. Dulcinea Saes Parra Abdalla, Department of Clinical and Toxicological Analyses, FCF-USP's and B16F10 murine melanoma cells, by Prof. Marcia Cominetti Department of Physiology and Molecular Biology of UFSCar. Both strains were grown in RPMI with 10% fetal calf serum. […] The preliminary investigation of the effect on angiogenesis was also made in vitro with HUVEC. The measures were undertaken to study the cell cycle by flow cytometry (propidium iodide and acridine orange) the assessment of mitochondrial activity by confocal microscopy (Mitotracker Red), and measurement of VEGF and PGE2 production by HUVEC, we performed cell culture supernatants by ELISA with commercial antibodies.

[6] = test system: VEGF; test: VEGF production by HUVEC, ELISA of culture supernatants; assay type: cell-based, human
Description: as §2

[7] = test system: PGE2; test: PGE2 production by HUVEC, ELISA of culture supernatants; assay type: cell-based, human; conditions: 1×10^4 cells/mL and 2×10^5 cells/mL plating
Description: as §2

[8] = test system: HUVEC; test: Mitochondrial activity of endothelial cells, Mitotracker Red confocal microscopy; assay type: cell-based, human; conditions: low-density plating
Description: FIGS. 15A-15F each show effect of MDJ on the mitochondrial activity of endothelial cells after 4 h of exposure in low-density plating on glass coverslips 25 mm in 24-well plates, as measured by Mitotracker red fluorescence confocal microscopy, increased 80× (40×+2× digital zoom). The calibration parameters were maintained for all measures. […] Concentrations equal to or greater than 1 mM lead to a decrease in the intensity/area of marking.
FIG. 16: Effect of MDJ on the mitochondrial activity of endothelial cells after 24 hours exposure in low-density plating on glass coverslips 25 mm in 24-well plates, as measured by Mitotracker Red fluorescence in confocal microscope, 40× magnification. The calibration parameters were maintained for all measurements, each point is the average of six independent measurements.
Cell lines used: non-neoplastic cells derived from human umbilical cord endothelial (HUVEC) and neoplastic cells of melanoma, B16F10 murine tumor. The HUVECs were provided by Dra. Dulcinea Saes Parra Abdalla, Department of Clinical and Toxicological Analyses, FCF-USP's and B16F10 murine melanoma cells, by Prof. Marcia Cominetti Department of Physiology and Molecular Biology of UFSCar. Both strains were grown in RPMI with 10% fetal calf serum. […] The preliminary investigation of the effect on angiogenesis was also made in vitro with HUVEC. […]

[9] = test system: CAM blood vessels; conditions: in vivo
Description: For the tests with eggs, egg whites were used Gallus gallus incubated in a thermostated incubator at controlled temperature and humidity. The incubation was performed with and without eggs lying giragem. A mark on the upper surface of the bark was used to control this procedure. The eggs were opened on the fourth day of incubation, after careful cleaning of the skin with cotton wool soaked in 70% alcohol. The opening was performed in laminar flow, keeping all your eggs in the same position in which they were hatched, supported on a plastic holder and marked on the upper surface. The experimental procedure was adapted and refined for the project, drawing on the first half of the twentieth century. The description of the method developed
After the opening and closing of windows all eggs were replaced in the incubator, with the same initial conditions and maintained for a further seven days, typically. […]
After brief fixation, the hull was breached and the embryo inert placed on a petri dish. […] In each trial, the image was captured from the fund, kept the lighting and color adjustments in order to standardize the images of the analyzed material. […]
Each region of the same sample was imaged in bright field and dark field, for better observation of details. The growth of the vascular network was analyzed with the program Image J by processing the images in bright field binary images. […]

[10] = test system: B16F10 murine melanoma; test: CAM model inoculated with B16F10 murine melanoma; assay type: in vivo
Description: After the opening and closing of windows all eggs were replaced in the incubator, with the same initial conditions and maintained for a further seven days, typically. In this interval procedures were carried out for tests of angiogenesis or for research on tumor growth in vivo. The observation of angiogenesis in eggs inoculated with tumor cells followed virtually the same test model of angiogenesis. Exposure to pure MDJ (cis/trans 96% pure from Sigma) or cyclodextrin-carried MDJ made in Example 3 above was performed on day 8, with the remaining eggs in the incubator until day 14. The inoculation with the melanoma cells was performed on day 4, eggs received MDJ pure or cyclodextrin-carried MDJ on the 8th day and remained incubated up to 14 days. During the development of the protocol, the time of inoculation and treatment were adjusted. Care during the collection and to obtain the images were standardized for all experiments.
The typical inoculum was 2×10^4 cells per egg, in a volume of culture medium less than […]. Melamona growth was accompanied by visual inspection of pigmented mass formation on the CAM, the magnifying glass and microscope. […]
Eggs used were measured by sampling and the average volume of 60 mL was maintained throughout the period of testing with a standard deviation below 10%. […] The tests of viability were monitored for up to 10 days. […]

[11] = Degradation in vivo (applicant's unpublished studies)

Question: Which results are given for `CCCCCC1C(=O)CCC1CC(=O)OC` (centres unmarked) [MDJ, methyl 2-(3-oxo-2-pentylcyclopentyl)acetate]?
Answer: cell proliferation and apoptosis in normal colonic mucosa and mucosa adjacent to tumors ([1]; MNNG-treated and non-MNNG animals): not associated to any significant changes in cell proliferation and apoptosis; Apoptotic Index (Tumor) ([1]; MNNG-treated mice, daily i.r.): 0.29 ± 0.04; Caspase-3-Li (tumor) ([1]; MNNG-treated mice, daily i.r.): 0.39 ± 0.11; Tumor Size ([1]; MNNG-treated mice, daily i.r. instillation): 0.56 mm^2; PCNA-Li ([1]; colonic tumors, MNNG-treated mice, daily i.r.): 0.41 ± 0.06; effect on tumor markers ([1]; i.r. administration): mild, but significant reduction in the above tumor markers; tolerability of i.p. injections (groups C and H discharged) [2]: early signs or peritonitis; folding time (growth curves) ([3]; HUVEC, at concentrations below 1 mM): about 20 h; concentrations at which MTT dye reduction (mitochondrial activity) was maintained at a constant value ([3]; confluent HUVEC): less than 1 mM; toxicity (MTT, growth curves) compared with HUVEC [4]: toxic concentrations were very close; Distribution according to the phases of the cell cycle,% (18 h): Dead cells ([5]; MDJ 1 nM): 13%; Distribution according to the phases of the cell cycle,% (18 h): G0/G1 ([5]; MDJ 1 nM): 72%; Distribution according to the phases of the cell cycle,% (18 h): G2/S ([5]; MDJ 1 nM): 15%; Marking with Acridine Orange,% (18 h) ([5]; MDJ 1 nM): 6.2 ± 0.1%; Distribution according to the phases of the cell cycle,% (18 h): Dead cells ([5]; MDJ 10 nM): 93%; Distribution according to the phases of the cell cycle,% (18 h): G0/G1 ([5]; MDJ 10 nM): 5%; Distribution according to the phases of the cell cycle,% (18 h): G2/S ([5]; MDJ 10 nM): 2%; Marking with Acridine Orange,% (18 h) ([5]; MDJ 1 uM): 12 ± 0.9%; Distribution according to the phases of the cell cycle,% (18 h): Dead cells ([5]; MDJ 10 uM): 7%; Distribution according to the phases of the cell cycle,% (18 h): G0/G1 ([5]; MDJ 10 uM): 60%; Distribution according to the phases of the cell cycle,% (18 h): G2/S ([5]; MDJ 10 uM): 33%; Marking with Acridine Orange,% (18 h) ([5]; MDJ 10 uM): 9.0 ± 0.5%; Distribution according to the phases of the cell cycle,% (18 h): Dead cells ([5]; MDJ 100 uM): 8%; Distribution according to the phases of the cell cycle,% (18 h): G0/G1 ([5]; MDJ 100 uM): 56%; Distribution according to the phases of the cell cycle,% (18 h): G2/S ([5]; MDJ 100 uM): 36%; Marking with Acridine Orange,% (18 h) ([5]; MDJ 100 uM): 6.7 ± 0.3%; VEGF, pg/mL (2 × 10^6 cells, 4 h) ([6]; MDJ 1 nM): 566 ± 31 pg/mL; VEGF, pg/mL (2 × 10^6 cells, 4 h) ([6]; MDJ 10 uM): 319 ± 12 pg/mL; VEGF, pg/mL (2 × 10^6 cells, 4 h) ([6]; MDJ 100 uM): 450 ± 30 pg/mL; PGE2 production by HUVEC [7]: no increase in PGE2 production; concentrations leading to a decrease in the intensity/area of Mitotracker red marking [8]: ≥ 1 mM; tolerability in fertilized eggs [9]: well tolerated by the eggs; melanoma bodies on CAM ([10]; CAM model): dose-dependent involution; survival of eggs inoculated with melanoma cells ([10]; eggs with B16F10): partially recovered this survival; degradation in vivo [11]: degraded very quickly in vivo
